The source of these data is patent publication US20210238162A1, “CHEMICAL COMPOUNDS” (GlaxoSmithKline Intellectual Property Development Limited, priority 2015, published 2021).

In this assay the target is T1, haematopoietic prostaglandin D synthase (H-PGDS) (Homo sapiens, UniProt O60760).
T1 construct: Full length human H-PGDS cDNA (Invitrogen Ultimate ORF IOH13026) was amplified by PCR; made in house; host or cells: E. coli BL21 (DE3*), vector pET22b+
The assay is described as follows: H-PGDS RapidFire High Throughput Mass Spectrometry Assay. The assay is classed as biochemical. How it is done: The H-PGDS RapidFire™ mass spectrometric assay monitors conversion of prostaglandin H2 (PGH2) to prostaglandin D2 (PGD2) by haematopoietic prostaglandin D synthase (H-PGDS). In the assay format described here, the substrate (PGH2) is formed in situ by the action of cyclooxygenase-2 on arachidonic acid. This first step is set up to be fast, and generates a burst of PGH2 at ˜10 μM. The PGH2 is then further converted to PGD2 by the H-PGDS enzyme. […] Plates are then read on the RapidFire™ high throughput solid phase extraction system (Agilent) which incorporates a solid phase extraction step coupled to a triple quadrupole mass spectrometer (AB SCIEX). Relative levels of PGD2 and PGF2α, which acts as a surrogate for substrate, are measured and a percent conversion calculated.
Full length human H-PGDS cDNA (Invitrogen Ultimate ORF IOH13026) was amplified by PCR with the addition of a 5′ 6-His tag and TEV protease cleavage site. The PCR product was digested with Ndel and Xhol and ligated into pET22b+ (Merck Novagen®). Expression was carried out in E. coli strain BL21 (DE3*) using auto-induction Overnight Express™ Instant TB medium (Merck Novagen®) supplemented with 1% glycerol. The culture was first grown at 37° C. and the temperature was reduced to 25° C. when OD600 reached 2.0. Cells were harvested by centrifugation after a further 18 hr. 10 g of E. coli cell pellet was suspended to a total volume of 80 mL in lysis buffer (20 mM Tris-Cl pH 7.5, 300 mM NaCl, 20 mM imidazole, 5 mM β-mercaptoethanol, 10% glycerol). 1 mg/mL protease inhibitors (Protease Inhibitor Cocktail Set Ill, Merck Calbiochem®) and 1 mg/mL lysozyme were added to the cell suspension. The suspension was then sonicated for 5 min (UltraSonic Processor VCX 750, Cole-Parmer Instrument Co.) with a micro probe (50% amplitude, 10 sec on/off) and then centrifuged at 100,000 g for 90 min (at 4° C.). The supernatant was loaded onto a Ni-NTA HiTrap column (5 mL, GE Heathcare, pre-equilibrated in lysis buffer). The column was washed with 10 column volumes of lysis buffer and eluted with lysis buffer containing 500 mM imidazole. The pooled protein peak fractions were concentrated using a 10 kDa centrifugal filter at 3500 g and 4° C. (Amicon Ultra-15 centrifugal filter unit with Ultracel-10 membrane from Millipore). Further purification of the concentrated protein was carried out using gel filtration chromatography on a HiLoad 26/600 Superdex 75 preparative grade column (GE Healthcare Life Sciences) using 50 mM Tris pH 7.5, 50 mM NaCl, 1 mM dithiothreitol, 1 mM MgCl2. Fractions containing the protein were pooled, concentrated as described above, and stored at −80° C.
The full length human COX-2 gene (accession number L15326) was amplified by PCR to generate an EcoRI-HindIII fragment containing an in-frame FLAG tag. This was subcloned into pFastBac 1 (Invitrogen). The COX2 FLAG plasmid was recombined into the baculovirus genome according to the BAC-to-BAC protocol described by Invitrogen. Transfection into Spodoptera frugiperda (Sf9) insect cells was performed using Cellfectin (Invitrogen), according to the manufacturer's protocol. […] Recombinant virus was added at a Multiplicity of Infection (MOI) of 5 and the culture was allowed to continue for 3 days. Cells were harvested using a continuous feed centrifuge run at 2500 g at a rate of approximately 2 L/min with cooling. The resultant cell slurry was re-centrifuged in pots (2500 g, 20 min, 4° C.) and the cell paste was stored at −80° C. […] The suspension was sonicated in 500 mL batches for 8×5 seconds at 10 u amplitude with the medium tip of an MSE probe sonicator and subsequently incubated at 4° C. for 90 min with gentle stirring. The lysate was centrifuged at 12000 rpm for 45 min at 4° C. in a Sorvall SLA1500 rotor. The supernatant (1400 mL) was added to 420 mL of 20 mM Tris-Cl pH 7.4, 150 mM NaCl, 0.1 mM EDTA to reduce the concentration of n-octyl-β-D-glucopyranoside to 1% w/v.

The mark [1] stands for this setting: H-PGDS RapidFire MS assay, mean pIC50, read-out: Potency Range (mean pIC50) (converted).
Where [2] appears, read: in at least one experimental run, read-out: H-PGDS pIC50 value (converted).

Counter-ions that a name gives are not always drawn. Like-named read-outs stand apart in the source and are kept apart here.

T1 sequence (O60760 whole entry): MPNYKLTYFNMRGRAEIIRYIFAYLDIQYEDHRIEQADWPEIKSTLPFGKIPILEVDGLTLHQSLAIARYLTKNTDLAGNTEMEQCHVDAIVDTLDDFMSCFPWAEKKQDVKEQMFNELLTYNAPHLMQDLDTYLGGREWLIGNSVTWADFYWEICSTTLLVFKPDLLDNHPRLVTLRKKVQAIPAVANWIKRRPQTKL

`C[C@H]1CCN1c1cc2ncc(C(=O)N[C@H]3CCNC3=O)cc2cc1F` [Example 176, 6-Fluoro-7-((S)-2-methylazetidin-1-yl)-N—((S)-2-oxopyrrolidin-3-yl)quinoline-3-carboxamide]: the IC50 under setting [1] is 10 to 79.4 nM.
On to `CC(C)(O)C(=O)N[C@H]1C[C@H](NC(=O)c2cnc3cc(OC(F)F)c(Cl)cc3c2)C1` [Example 226, 6-Chloro-7-(difluoromethoxy)-N-(trans-3-(2-hydroxy-2-methylpropanamido)cyclobutyl)quinoline-3-carboxamide], for which, under setting [1], the IC50 was 10 to 79.4 nM.
Still for that read-out and setting: then `O=C(N[C@H]1CC[C@H](OCC2(O)CC2)CC1)c1cnc2cc(OC(F)F)c(Cl)cc2c1` [Example 123, 6-Chloro-7-(difluoromethoxy)-N-(trans-4-((1-hydroxycyclopropyl)methoxy)cyclohexyl)quinoline-3-carboxamide], with less than 10 nM; and `CC1CN(c2cc3ncc(C(=O)N[C@H]4CC[C@H](C(C)(C)O)CC4)cc3cc2F)C1` [Example 183, 6-Fluoro-N-(trans-4-(2-hydroxypropan-2-yl)cyclohexyl)-7-(3-methylazetidin-1-yl)quinoline-3-carboxamide], with 10 to 79.4 nM.
For the compound `Cn1nnnc1N1CCC(NC(=O)c2cnc3ccc(Cl)cc3c2)CC1` [Example 106, 6-Chloro-N-(1-(1-methyl-1H-tetrazol-5-yl)piperidin-4-yl)quinoline-3-carboxamide], the IC50 under setting [1] is 100 to 1000 nM.
As for `CC(C)(O)[C@H]1CC[C@H](NC(=O)c2cnc3cc(C4CCC4)c(Cl)cc3c2)CC1` [Example 179, 6-Chloro-7-cyclobutyl-N-(trans-4-(2-hydroxypropan-yl)cyclohexyl)quinoline-3-carboxamide], under setting [1], the IC50 is less than 10 nM.
Take `CCOc1cc2ncc(C(=O)N[C@H]3CC[C@H](C(C)(C)O)CC3)cc2cc1F` [Example 178, 7-Ethoxy-6-fluoro-N-(trans-4-(2-hydroxypropan-2-yl)cyclohexyl)quinoline-3-carboxamide]: under setting [1], the IC50 is 10 to 79.4 nM.
The same measure, in the same setting: then `C[C@]1(O)C[C@@H](NC(=O)c2cnc3cc(OC(F)F)c(Br)cc3c2)C1` [Example 157, 6-Bromo-7-(difluoromethoxy)-N-((1s,3s)-3-hydroxy-3-methylcyclobutyl)quinoline-3-carboxamide], with 10 to 79.4 nM; and `O=C(N[C@@H]1CC[C@@H](C(O)C(F)(F)F)OC1)c1cnc2cc(OC(F)F)ccc2c1` (mixture of isomers) [Example 17, Racemic 7-(Difluoromethoxy)-N-((3R,6S)-6-(2,2,2-trifluoro-1-hydroxyethyl)tetrahydro-2H-pyran-3-yl)quinoline-3-carboxamide], with 10 to 79.4 nM; and `O=C(N[C@H]1CC[C@H](N[C@H](CO)C(F)(F)F)CC1)c1cnc2cc(OC(F)F)c(F)cc2c1` [Example 77, 7-(Difluoromethoxy)-6-fluoro-N-(trans-4-(((R)-1,1,1-trifluoro-3-hydroxypropan-2-yl)amino)cyclohexyl)quinoline-3-carboxamide], with 10 to 79.4 nM.
In the case of `C[C@@H]1CNC(=O)[C@H]1NC(=O)c1cnc2cc(OC(F)F)c(Cl)cc2c1` [Example 144, 6-Chloro-7-(difluoromethoxy)-N-((3S,4R)-4-methy-2-oxopyrrolidin-3-yl)quinoline-3-carboxamide], the IC50 under setting [1] is less than 10 nM.
In the case of `CC(C)(O)[C@@H]1CC[C@@H](NC(=O)c2cnc3cc(OC(F)F)ccc3c2)CO1` (racemic) [Example 22, Racemic 7-(Difluoromethoxy)-N-((3s,6r)-6-(2-hydroxypropan-2-yl)tetrahydro-2H-pyran-3-yl)quinoline-3-carboxamide], under setting [1], the IC50 is 10 to 79.4 nM.
In the case of `CC(C)(O)[C@H]1CC[C@H](NC(=O)c2cnc3cc(N4CC(F)C4)c(F)cc3c2)CC1` [Example 164, 6-Fluoro-7-(3-fluoroazetidin-1-yl)-N-(trans-4-(2-hydroxypropan-2-yl)cyclohexyl)quinoline-3-carboxamide], the IC50 under setting [1] is less than 10 nM.
Still for that read-out and setting: then `Cn1nnnc1N1CCC(NC(=O)c2cnc3c4c(ccc3c2)CCO4)CC1` [Example 112, N-(1-(1-Methyl-1H-tetrazol-5-yl)piperidin-4-yl)-2,3-dihydrofuro[3,2-h]quinoline-7-carboxamide], with 10 to 79.4 nM.
With `CC(C)(O)[C@H]1CC[C@H](NC(=O)c2cnc3cc(C4CC4(F)F)c(Cl)cc3c2)CC1` (stereo partly drawn) [Example 222, 6-Chloro-7-(2,2-difluorocyclopropyl)-N-((trans)-4-(2-hydroxypropan-2-yl)cyclohexyl)quinoline-3-carboxamide], the IC50 is, setting by setting: under setting [1], 10 to 79.4 nM; under setting [2], 63.1 nM.
As to `O=C(N[C@H]1C[C@H](N2CC(O)(C(F)(F)F)C2)C1)c1cnc2cc(OC(F)F)c(Cl)cc2c1` [Example 214, 6-Chloro-7-(difluoromethoxy)-N-((trans)-3-(3-hydroxy-3-(trifluoromethyl)azetidin-1-yl)cyclobutyl)quinoline-3-carboxamide], the IC50 reads like this: under setting [1], less than 10 nM; under setting [2], 6.31 nM.
As to `C[C@H](NC[C@H]1CC[C@H](NC(=O)c2cnc3cc(OC(F)F)c(F)cc3c2)CC1)C(F)F` [Example 100, 7-(Difluoromethoxy)-N-(trans-4-((((S)-1,1-difluoropropan-2-yl)amino)methyl)cyclohexyl)-6-fluoroquinoline-3-carboxamide], the IC50 under setting [1] is 10 to 79.4 nM.
In the case of `O=C(N[C@H]1CCNC1=O)c1cnc2cc(N3CC(F)C3)c(Cl)cc2c1` [Example 169, (S)-6-Chloro-7-(3-fluoroazetidin-1-yl)-N-(2-oxopyrrolidin-3-yl)quinoline-3-carboxamide], the IC50 under setting [1] is less than 10 nM.
For `N#Cc1cc2cc(C(=O)N[C@H]3CCNC3=O)cnc2cc1C1CC1` [Example 25, (S)-6-Cyano-7-cyclopropyl-N-(2-oxopyrrolidin-3-yl)quinoline-3-carboxamide hydrochloride], the IC50 was 10 to 79.4 nM under setting [1] and 25.1 nM under setting [2].
Regarding `CC(N[C@H]1CC[C@H](NC(=O)c2cnc3cc(OC(F)F)c(Br)cc3c2)CC1)C(F)F` (mixture of isomers) [Example 156, 6-Bromo-7-(difluoromethoxy)-N-(trans-4-((1,1-difluoropropan-2-yl)amino)cyclohexyl)quinoline-3-carboxamide], the IC50 under setting [1] is less than 10 nM.
Turning to `CNc1cc2ncc(C(=O)N[C@H]3CC[C@H](C(C)(C)O)CC3)cc2cc1Cl` [Example 209], under setting [1], the IC50 is less than 10 nM.
In the case of `CC1(C)CC(NC(=O)c2cnc3cc(OC(F)F)c(Cl)cc3c2)CCO1` (centres unmarked) [Example 150, 6-Chloro-7-(difluoromethoxy)-N-(2,2-dimethyltetrahydro-2H-pyran-4-yl)quinoline-3-carboxamide], the IC50 was 10 to 79.4 nM under setting [1] and 39.8 nM under setting [2].
As to `C[C@@H]1CNC(=O)[C@H]1NC(=O)c1cnc2cc(N3CC[C@@H]3C)c(Cl)cc2c1` [Example 205, 6-Chloro-N-((3S,4R)-4-methyl-2-oxopyrrolidin-3-yl)-7-((S)-2-methylazetidin-1-yl)quinoline-3-carboxamide], the IC50 under setting [1] was less than 10 nM.
Take `CC(C)(O)[C@H]1CC[C@H](NC(=O)c2cnc3cc(N4CC(F)(F)C4)c(F)cc3c2)CC1` [Example 177, 7-(3,3-Difluoroazetidin-1-yl)-6-fluoro-N-(trans-4-(2-hydroxypropan-2-yl)cyclohexyl)quinoline-3-carboxamide]: the IC50 by setting is: under setting [1], 10 to 79.4 nM; under setting [2], 20 nM.
